For this assay, the target named is T1, human VDR (Homo sapiens, UniProt P11473).
T1 sequence (P11473 1-427): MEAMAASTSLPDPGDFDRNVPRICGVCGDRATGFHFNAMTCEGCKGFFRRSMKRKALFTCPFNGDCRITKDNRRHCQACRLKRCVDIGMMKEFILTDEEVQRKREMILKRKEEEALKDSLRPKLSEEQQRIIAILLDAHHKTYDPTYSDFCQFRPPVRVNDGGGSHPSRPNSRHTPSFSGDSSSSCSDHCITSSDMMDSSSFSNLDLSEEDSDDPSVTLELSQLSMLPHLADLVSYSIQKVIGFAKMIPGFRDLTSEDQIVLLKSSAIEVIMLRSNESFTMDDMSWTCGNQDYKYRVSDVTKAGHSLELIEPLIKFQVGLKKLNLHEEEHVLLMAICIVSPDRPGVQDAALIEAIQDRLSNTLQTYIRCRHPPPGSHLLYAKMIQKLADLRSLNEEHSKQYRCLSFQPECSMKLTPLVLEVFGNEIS
T1 sequence (P19793 1-462 partner): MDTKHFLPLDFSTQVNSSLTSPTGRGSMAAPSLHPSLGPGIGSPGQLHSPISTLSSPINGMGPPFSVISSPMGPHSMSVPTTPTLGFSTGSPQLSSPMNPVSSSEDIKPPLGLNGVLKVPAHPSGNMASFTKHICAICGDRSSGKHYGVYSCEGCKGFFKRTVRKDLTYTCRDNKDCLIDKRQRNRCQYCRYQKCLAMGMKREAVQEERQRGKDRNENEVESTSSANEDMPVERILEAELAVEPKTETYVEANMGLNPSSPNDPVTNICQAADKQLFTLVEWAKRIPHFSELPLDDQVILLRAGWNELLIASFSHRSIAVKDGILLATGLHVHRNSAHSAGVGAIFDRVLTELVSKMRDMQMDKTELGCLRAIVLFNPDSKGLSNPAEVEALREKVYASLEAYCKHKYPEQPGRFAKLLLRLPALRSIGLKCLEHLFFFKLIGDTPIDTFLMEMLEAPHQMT
Description: Evaluation of VDR transcription activity in human osteoblasts (HOS cells), luciferase reporter. The settings on record: Activity (EC50, VDR transcription activity), HOS cells transfected with human VDR, human RXRα and DR3 luciferase reporter; 21 hours. On the technique in general: Reporter assays use an easily measured gene product as a stand-in for the process of interest.
As a reminder, the EC50 is the concentration at which the effect is half-maximal. The low end stands for higher potency in that assay, the high end for lower potency in that assay. Turning to `C[C@H](CCN1CC[C@@H](OC(F)F)C1)[C@H]1CC[C@H]2/C(=C/C=C3C[C@@H](O)C[C@H](O)C3)CCC[C@]12C` [Compound B087, (1R,3R)-5-(2-((1R,3aS,7aR,E)-1-((R)-4-((R)-3-(difluoromethoxy)pyrrolidin-1-yl)butan-2-yl)-7a-methyloctahydro-4H-inden-4-ylidene)ethylidene)cyclohexane-1,3-diol], the concentration giving a half-maximal response (EC50) fell in the range of 100 to 1000 nM.

The compound `C=C1[C@H](O)CC(=C/C=C2\CCC[C@]3(C)[C@@H]([C@H](C)CCN4CC[C@H](C(F)F)C4)CC[C@@H]23)C[C@H]1O` [Compound B088, (1R,3R)-5-(2-((1R,3aS,7aR,E)-1-((R)-4-((S)-3-(difluoromethyl)pyrrolidin-1-yl)butan-2-yl)-7a-methyloctahydro-4H-inden-4-ylidene)ethylidene)-2-methylenecyclohexane-1,3-diol] displayed a half-maximal effective concentration (EC50) of 1 to 10 nM.

In turn, `C=C1[C@H](O)CC(=C/C=C2\CCC[C@]3(C)[C@@H]([C@H](C)CCN4CC[C@H](CC(F)F)C4)CC[C@@H]23)C[C@H]1O` [Compound B090, (1R,3R)-5-(2-((1R,3aS,7aR,E)-1-((R)-4-((R)-3-(2,2-difluoroethyl)pyrrolidin-1-yl)butan-2-yl)-7a-methyloctahydro-4H-inden-4-ylidene)ethylidene)-2-methylenecyclohexane-1,3-diol] yielded a 50% effective concentration (EC50) of 1 to 10 nM.

Compound `C=C1[C@H](O)CC(=C/C=C2\CCC[C@]3(C)[C@@H]([C@H](C)CCN4CC[C@H](C(C)(F)F)C4)CC[C@@H]23)C[C@H]1O` [Compound B091, (1R,3R)-5-(2-((1R,3aS,7aR,E)-1-((R)-4-((S)-3-(1,1-difluoroethyl)pyrrolidin-1-yl)butan-2-yl)-7a-methyloctahydro-4H-inden-4-ylidene)ethylidene)-2-methylenecyclohexane-1,3-diol] yielded an EC50 of 1 to 10 nM.

`C=C1[C@H](O)CC(=C/C=C2\CCC[C@]3(C)[C@@H]([C@H](C)CCN4CC[C@@H](CC(F)F)C4)CC[C@@H]23)C[C@H]1O` [Compound B092, (1R,3R)-5-(2-((1R,3aS,7aR,E)-1-((R)-4-((S)-3-(2,2-difluoroethyl)pyrrolidin-1-yl)butan-2-yl)-7a-methyloctahydro-4H-inden-4-ylidene)ethylidene)-2-methylenecyclohexane-1,3-diol] displayed a concentration giving a half-maximal response (EC50) of 10 to 100 nM.

For `C=C1[C@H](O)CC(=C/C=C2\CCC[C@]3(C)[C@@H]([C@H](C)CCN4CC[C@@H](C(C)(F)F)C4)CC[C@@H]23)C[C@H]1O` [Compound B093, (1R,3R)-5-(2-((1R,3aS,7aR,E)-1-((R)-4-((R)-3-(1,1-difluoroethyl)pyrrolidin-1-yl)butan-2-yl)-7a-methyloctahydro-4H-inden-4-ylidene)ethylidene)-2-methylenecyclohexane-1,3-diol], the concentration for a half-maximal effect (EC50) is 1 to 10 nM.

`C=C1[C@H](O)CC(=C/C=C2\CCC[C@]3(C)[C@@H]([C@H](C)CCN4CC[C@@H](CCC(F)F)C4)CC[C@@H]23)C[C@H]1O` [Compound B094, (1R,3R)-5-(2-((1R,3aS,7aR,E)-1-((R)-4-((R)-3-(3,3-difluoropropyl)pyrrolidin-1-yl)butan-2-yl)-7a-methyloctahydro-4H-inden-4-ylidene)ethylidene)-2-methylenecyclohexane-1,3-diol]: the EC50 fell in the range of 10 to 100 nM.

Consider `C=C1/C(=C\C=C2/CCC[C@]3(C)[C@@H]([C@@H](C)CN4CC[C@H](C(F)F)C4)CC[C@@H]23)C[C@@H](O)C[C@@H]1O` [Compound B095, (1R,3S,Z)-5-(2-((1R,3aS,7aR,E)-1-((R)-1-((S)-3-(difluoromethyl)pyrrolidin-1-yl)propan-2-yl)-7a-methyloctahydro-4H-inden-4-ylidene)ethylidene)-4-methylenecyclohexane-1,3-diol], for which the EC50 is 100 to 1000 nM.
